Experimental data published in patent US6632832B1 (Dabur Research Foundation, priority 2002, dated 2003).
Values after ≈ are worked out from the molar mass of the structure shown.

Assays:
[1] = system: B16F10 (melanoma); test: MTT cytotoxicity assay, 72 hours; type: cell-based, human; details: 72 h MTT
Method: (§1) After 72 hours, the assay was terminated and percent cyotoxicities calculated.

[2] = system: DU145 (prostate); test: MTT cytotoxicity assay, 72 hours; type: cell-based, human; details: 72 h MTT
Method: as §1

[3] = system: HBL100 (breast); test: MTT cytotoxicity assay, 72 hours; type: cell-based, human; details: 72 h MTT
Method: as §1

[4] = system: KB (oral); test: MTT cytotoxicity assay, 72 hours; type: cell-based, human; details: 72 h MTT
Method: as §1

[5] = system: L132 (lung); test: MTT cytotoxicity assay, 72 hours; type: cell-based, human; details: 72 h MTT
Method: as §1

[6] = system: MiaPaCa.2 (pancreas); test: MTT cytotoxicity assay, 72 hours; type: cell-based, human; details: 72 h MTT
Method: as §1

[7] = system: PA1 (ovary); test: MTT cytotoxicity assay, 72 hours; type: cell-based, human; details: 72 h MTT
Method: as §1

[8] = system: PTC (colon); test: MTT cytotoxicity assay, 72 hours; type: cell-based, human; details: 72 h MTT
Method: as §1

[9] = system: U87.MG (glioblastoma); test: MTT cytotoxicity assay, 72 hours; type: cell-based, human; details: 72 h MTT
Method: as §1

[10] = system: Human Colon, Ovary, melanoma, Leukemia, Glioblastoma, Prostate, oral and Lung tumor cell lines; test: MTT cytotoxicity assay, summary over the tumor cell line panel; type: cell-based
Method: as §1

[11] = system: EGF dependent proliferation in human pancreatic cancer cells (MiaPaCa2); test: EGF dependent proliferation, percent viable cells by MTT in sera free conditions; type: cell-based; parameters: dose or concentration left out as unconfirmed; details: Carvedilol for 16 hours, then varying EGF for 48 hours
Method: (§2) Briefly, 10000 human pancreatic cancer cells (MiaPaCa2) were seeded per well in a 96-well culture plate in DMEM containing 5% FCS. All experiments were carried out in triplicates at 37° C. in a CO2 incubator. The cells were incubated for a period of 12 hours, washed once with PBS and the medium was changed to DMEM without Fetal calf serum (FCS). […] The untreated control cells were treated with 1% DMSO in DMEM. The cells were washed with PBS and incubated with varying concentrations of EGF in DMEM without FCS for a period of 48 hours. The percent viable cells in absence and presence of Carvedilol was determined in an MTT assay in vitro.

[12] = system: PDGF dependent proliferation in human pancreatic cancer cells (MiaPaCa2); test: PDGF dependent proliferation, percent viable cells by MTT in sera free conditions; type: cell-based; details: Carvedilol 20 ug/ml for 16 hours, then varying PDGF for 48 hours
Method: as §2, with “fetal calf serum (FCS).” for “FCS.”, “FCS.” for “Fetal calf serum (FCS).”, “The cells were washed with PBS and incubated with varying concentrations of EGF in DMEM without FCS for a period of 48 hours.” left out

[13] = system: human pancreatic cancer cells (MiaPaCa2); test: Cytotoxicity abrogation assay with intracellular blocking of PKC by Bisindolylmaleimide; type: cell-based
Method: (§3) Briefly, 10000 human pancreatic cancer cells (MiaPaCa2) were seeded per well in a 96-well culture plate in DMEM containing 5% FCS. All experiments were carried out in triplicate at 37° C. in CO2 incubator. The plates were incubated overnight to allow complete reattachment of the cells. Subsequently, the medium was replaced with DMEM. The cells were incubated with varying concentrations of Bisindolylmaleimide, the specific inhibitor of PKC for a period of three hours. Bisindolylmaleimide was dissolved in 1% DMSO The control cells were treated with 1% DMSO. The cells were washed with PBS, and the medium was changed to fresh DMEM.

[14] = system: human pancreatic cancer cells (MiaPaCa2); test: Cytotoxicity abrogation assay with intracellular blocking of PI3 kinase by Wortmannin; type: cell-based
Method: as §3, with “of Wortmannin,the” for “of Bisindolylmaleimide, the”, “of PI3 kinase” for “of PKC”, “hours. Wortmannin” for “hours. Bisindolylmaleimide”, “in 0.5% DMSO.” for “in 1% DMSO”, “with 0.5%” for “with 1%”

[15] = system: Protein Kinase C (PKC); test: PKC activity ELISA on lysates of treated MiaPaCa2 cells; type: cell-based, human; details: 5-100 ug/ml for 15 minutes
Method: Briefly 0.5×10^6 cells of human pancreatic cancer cells (MiaPaCa2) were plated per well in 6 well tissue culture plates in 2 ml of DMEM containing 10% Fetal calf serum. The cells were incubated overnight at 37° C. and 5% CO2. The medium was changed to DMEM without serum. […] The control cells were treated with 1% DMSO in DMEM. […] The cells were scraped with sterile cell scrapers, and spun at 1500 rpm for 5 minutes. The cell pellet was dissolved in 1 ml of ice cold sample preparation buffer (50 mM Tris-HCl, 50 mM 2-mercaptoethanol, 10 mM EGTA, 5 mM EDTA, 1 mM PMSF, 10 mM Benzamidine, pH 7.5). The cell pellets were sonicated four to five times each with time intervals of 5-10 seconds. The cells were centrifuged at 100,000×g for a period of 60 minutes at 4° C. The supernatant was aspirated from each set of experiments. The reaction mixture for quantitation of the PKC activity contained 25 mM Tris-HCl (pH7.0), 3 mM Mgc12, 0.1 mM ATP, 2 mM CaCl2, 50 ug/ml Phosphatidylserine, 0.5 mM EDTA, 1 mM EGTA, and 5 mM 2 mercaptoethanol. The lysates from the cells not treated with Carvedilol were the control experiments. The reaction mixture was preincubated for 5 minutes at 25° C. […] The optical density was read at 492 nm, and the PKC activity expressed as percent of that in control cells.

[16] = system: Cyclooxygenase 2 enzyme; test: COX2 activity by PGE2 quantitation in MiaPaCa2 cells; type: cell-based, human
Method: 1×10^6 human pancreatic cancer cells (MiaPaCa2) were plated in 6 well plates in RPMI containing 10% FCS. The cells were incubated for a period of 24 hours at 37° C. in 5% CO2. The medium was changed to DMEM without serum. […] All experiments were carried out in duplicates. […] The medium was aspirated to remove Bisindolemaleimide, and the cells were washed twice with PBS. […] The cells were incubated at 37° C. for one hour. Indomethacin at a concentration of 10 ug/ml was added to the wells to block the COX enzyme. […] The cells were lysed (2.5% dodecyltrimethylammonium) and incubated for 10 minutes at room temperature. The cell lysates were transferred to microtitre plate coated with goat anti mouse Ig coated plate. 50 microliter of PGE2 standards ranging from 2.5 to 320 pg/ml were added to the microtitre plate in duplicates. 50 microliter of mouse anti PGE2 and 50 microliter of PGE2 conjugated peroxidase was added to the wells. The plate was covered and incubated at room temperature for one hour on a microtitre plate shaker. The wells were aspirated and washed 4 times with suitable was buffer. 150 microlire of enzyme substrate was added to all the wells. […] The OD was read at 450 nm.
The levels of secreted and intracellular PGE2 were quantitated in cells treated with or without bisindolemaleimide.

[17] = system: B16F10 melanoma tumor xenografts; test: B16F10 melanoma xenograft model in nude mice; type: in vivo, Balb/c athymic mice; details: for tumor inhibition based on tumor volumes compared with untreated controls: oral gavage once a day, Day 19
Method: Melanoma tumor xenografts were initiated in Balb/c athymic mice by subcutaneous inoculation of a single cell suspension of B16F10 cells (10×10^6 cells/100 μL). The tumor-bearing mice were divided into three groups of 4 animals each. […] The third group served as control. […] The anti-tumor activity was monitored by measuring the tumors using a vernier caliper every fourth day and calculating volumes using the formula 0.4×W^2×L(W=smaller dia, L=larger dia,).

[18] = Acute toxicity in mice; type: in vivo; details: Swiss albino mice weighing 25 grams, observed for two weeks
Method: Acute toxicity studies were performed using two preferred routes of administration: intravenous and oral administration.

[19] = system: MOLT4 (leukemia); test: MTT cytotoxicity assay, 72 hours; type: cell-based, human; details: MOLT-4 (Leukemia), 72 h MTT, Table 2
Method: as §1

[20] = system: β-receptor; details: preclinical studies; cited from earlier work

## COc1ccccc1OCCNCC(O)COc1cccc2[nH]c3ccccc3c12 (racemic) [Carvedilol, (±)-1-(carbazol-4-yloxy)-3-[(2-(o-methoxyphenoxy)ethyl]amino]-2-propanol]
[1]; B16.F10 (Melanoma), Table 2
  ED50: 10.5 ± 1.7 µg/mL (≈ 25.8 µM)
[1]; B16F10 (melanoma)
  ED50: 10.5 ± 1.7 µg/mL (≈ 25.8 µM)
[2]
  ED50: 9.0 ± 0.9 µg/mL (≈ 22.1 µM)
[3]; HBL100 (Breast), Table 2
  ED50: 29.0 ± 4.2 µg/mL (≈ 71.3 µM)
[3]; HBL100 (breast)
  ED50: 29.0 ± 4.2 µg/mL (≈ 71.3 µM)
[4]; KB (Oral), Table 2
  ED50: 12.0 ± 1.8 µg/mL (≈ 29.5 µM)
[4]; KB (oral)
  ED50: 12.0 ± 1.8 µg/mL (≈ 29.5 µM)
[5]; L132 (Lung), Table 2
  ED50: 16.0 ± 3.1 µg/mL (≈ 39.4 µM)
[5]; L132 (lung)
  ED50: 16.0 ± 3.1 µg/mL (≈ 39.4 µM)
[6]; MiaPaCa.2 (Pancreas), Table 2
  ED50: 33.0 ± 4.6 µg/mL (≈ 81.2 µM)
[6]; MiaPaCa.2 (pancreas)
  ED50: 33.0 ± 4.6 µg/mL (≈ 81.2 µM)
[7]; PA1 (ovary)
  ED50: 11.5 ± 2.1 µg/mL (≈ 28.3 µM)
[7]; PA-1 (Ovary), Table 2
  ED50: 11.5 ± 2.1 µg/mL (≈ 28.3 µM)
[8]; PTC (Colon), Table 2
  ED50: 7.0 ± 0.7 µg/mL (≈ 17.2 µM)
[8]; PTC (colon)
  ED50: 7.0 ± 0.7 µg/mL (≈ 17.2 µM)
[9]; U87.MG (glioblastoma)
  ED50: 14.5 ± 2.2 µg/mL (≈ 35.7 µM)
[9]; U87MG (Glioblastoma), Table 2
  ED50: 14.5 ± 2.2 µg/mL (≈ 35.7 µM)
[10]; 20 μg/ml, all of the above-mentioned tumor cell lines, except oral
  cytotoxicity at a fixed concentration (FIG. 1): high cytotoxicity effect
[10]; Colon, Ovary, melanoma, Leukemia, Glioblastoma, Prostate, oral and Lung tumor cell lines
  ED50 values: less than 20 μg/ml
[11]
  effect on EGF dependent proliferation (FIG. 2): inhibits the EGF dependent proliferation in pancreatic cancer cells in a dose dependent manner
[12]
  effect on PDGF dependent proliferation (FIG. 3): inhibits the PDGF dependent proliferation in human pancreatic cancer cells in a dose dependent manner
[13]; MIA PaCa-2, 48 h, read-out: % Cytotoxicity of Carvedilol (20 ug/ml), MiaPaCa2, 48 hours, Bisindolemaleimide Nil
  cytotoxicity at 20 µg/mL: 50%
[13]; MIA PaCa-2, read-out: % Cytotoxicity of Carvedilol (20 ug/ml), MiaPaCa2, 48 hours, preincubated with Bisindolemaleimide 1.0 uM
  cytotoxicity at 20 µg/mL: 22%
[13]; MIA PaCa-2, read-out: % Cytotoxicity of Carvedilol (20 ug/ml), MiaPaCa2, 48 hours, preincubated with Bisindolemaleimide 2.5 uM
  cytotoxicity at 20 µg/mL: 20%
[13]; MIA PaCa-2, read-out: % Cytotoxicity of Carvedilol (20 ug/ml), MiaPaCa2, 48 hours, preincubated with Bisindolemaleimide 5.0 uM
  cytotoxicity at 20 µg/mL: 20%
[14]; MIA PaCa-2, 48 h, read-out: % Cytotoxicity of Carvedilol (20 ug/ml), MiaPaCa2, 48 hours, Wortamannin Nil
  cytotoxicity at 20 µg/mL: 50%
[14]; MIA PaCa-2, read-out: % Cytotoxicity of Carvedilol (20 ug/ml), MiaPaCa2, 48 hours, preincubated with Wortamannin 0.5 nM
  cytotoxicity at 20 µg/mL: 22%
[14]; MIA PaCa-2, read-out: % Cytotoxicity of Carvedilol (20 ug/ml), MiaPaCa2, 48 hours, preincubated with Wortamannin 1.0 nM
  cytotoxicity at 20 µg/mL: 20%
[14]; MIA PaCa-2, read-out: % Cytotoxicity of Carvedilol (20 ug/ml), MiaPaCa2, 48 hours, preincubated with Wortamannin 1.5 nM
  cytotoxicity at 20 µg/mL: 19%
[14]; MIA PaCa-2, read-out: % Cytotoxicity of Carvedilol (20 ug/ml), MiaPaCa2, 48 hours, preincubated with Wortamannin 2.0 nM
  cytotoxicity at 20 µg/mL: 18%
[15]
  effect on PKC activity (FIG. 4): inhibits the PKC activity in a dose dependent manner
[16]; MiaPaCa2, 10 ug/ml and 20 ug/ml for 4 hours, secreted and intracellular PGE2
  effect on COX2 activity (FIG. 5): inhibits the COX2 activity
[16]; MiaPaCa2 preincubated with Bisindolemaleimide (1 uM) for 4 hours
  effect on COX 2 activity after blocking of PKC: abrogates the effect of Carvedilol on COX 2 activity
[17]; 300 ug/day
  tumor inhibition based on tumor volumes compared with untreated controls: 37.3%
[17]; 600 ug/day
  tumor inhibition based on tumor volumes compared with untreated controls: 59.1%
[17]; both doses (300 and 600 ug/day oral)
  pattern of tumor growth (FIG. 6): delayed tumor growth and tumor regression
[18]; i.v.
  safe dose: 0.15 mg
[18]; oral
  safe dose: 3 mg

## COc1ccccc1OCCNC[C@@H](O)COc1cccc2[nH]c3ccccc3c12 (single isomer, unassigned) [R(+) isomer]
[1]; B16.F10 (Melanoma), Table 2
  ED50: 10.5 ± 1.6 µg/mL (≈ 25.8 µM)
[3]; HBL100 (Breast), Table 2
  ED50: 32.8 ± 3.7 µg/mL (≈ 80.7 µM)
[4]; KB (Oral), Table 2
  ED50: 12.0 ± 2.6 µg/mL (≈ 29.5 µM)
[5]; L132 (Lung), Table 2
  ED50: 16.0 ± 3.1 µg/mL (≈ 39.4 µM)
[19]
  ED50: 12.0 ± 1.6 µg/mL (≈ 29.5 µM)
[6]; MiaPaCa.2 (Pancreas), Table 2
  ED50: 27.0 ± 2.7 µg/mL (≈ 66.4 µM)
[7]; PA-1 (Ovary), Table 2
  ED50: 10.0 ± 1.5 µg/mL (≈ 24.6 µM)
[8]; PTC (Colon), Table 2
  ED50: 7.0 ± 0.4 µg/mL (≈ 17.2 µM)
[9]; U87MG (Glioblastoma), Table 2
  ED50: 14.5 ± 2.9 µg/mL (≈ 35.7 µM)

## COc1ccccc1OCCNC[C@H](O)COc1cccc2[nH]c3ccccc3c12 (single isomer, unassigned) [S(−) isomer]
[1]; B16.F10 (Melanoma), Table 2
  ED50: 11.4 ± 2.1 µg/mL (≈ 28 µM)
[3]; HBL100 (Breast), Table 2
  ED50: 33.5 ± 4.2 µg/mL (≈ 82.4 µM)
[4]; KB (Oral), Table 2
  ED50: 19.0 ± 3.4 µg/mL (≈ 46.7 µM)
[5]; L132 (Lung), Table 2
  ED50: 22.6 ± 3.8 µg/mL (≈ 55.6 µM)
[19]
  ED50: 17.0 ± 2.5 µg/mL (≈ 41.8 µM)
[6]; MiaPaCa.2 (Pancreas), Table 2
  ED50: 33.0 ± 3.9 µg/mL (≈ 81.2 µM)
[7]; PA-1 (Ovary), Table 2
  ED50: 13.0 ± 1.3 µg/mL (≈ 32 µM)
[8]; PTC (Colon), Table 2
  ED50: 7.5 ± 0.4 µg/mL (≈ 18.5 µM)
[9]; U87MG (Glioblastoma), Table 2
  ED50: 18.5 ± 2.1 µg/mL (≈ 45.5 µM)

## COc1cc(O)ccc1OCCNCC(O)COc1cccc2[nH]c3ccccc3c12 (stereo not drawn) [4′-hydroxyphenyl metabolite]
[20]
  potency for β-blockade relative to carvedilol: approximately 13 times
